Laboratory results from EP0211183A2, “Use of ubidecarenone(ubiquinone-10) as an antichromatotic agent” (Eisai Co., Ltd., priority 1985, dated 1987).
Read-outs that look alike come from different tables or passages of the source.

Tests used:
[1] = Acute toxicity, various dosage pathways, 7-day lethality, LD50 by Litchfield-Wilcoxon; format: in vivo, ICR-JCL mice; details: in vivo, read-out: LD50 value (95% confidence limit)
Protocol: (§1) The acute toxicity of the present substance was investigated in various dosage pathways by the use of Wister rats and ICR-JCL mice. For the peroral or endermic dosage, the present substance was dissolved in a distilled water and the resulting solution was used. For the other dosages, the present substance was dissolved in a physiological salt solution and the resulting solution was dosed with a stomach conductor or an injector. In each dosage, a determined amount of the substance was regulated and properly dosed.
(§2) After the dosage, the expression of toxicopathy was continuously observed, and the lethality with the lapse of time for 7 days was measured and the value of LDSO was obtained therefrom. Both the tested animals as living and the tested animals as died were dissected for observation. LD50 was calculated on the basis of Litchfield-Wilcoxon figure-calculation method.

ICR-JCL mice = experiment: as above; format: in vivo; details: mice
Protocol: as §1, §2

Wister rats = experiment: as above; format: in vivo; details: rats
Protocol: as §1, §2

guinea pigs = experiment: Sensitization, maximization test by Magnusson and Kligman; format: in vivo; details: challenge on day 21, sealed 24 hours
Protocol: This was tested in accordance with a maximization test by Magnusson B. and Kligman, A.M. The test is as follows:
Twenty guinea pigs were prepared for the test, ten being for the induction and the other ten being for the control in the challenge. The suprascapular part of the guinea pig was clipped and shaved in the area of 4cm x 6cm, and the following three pairs of hypodermic injections (a), (b) and (c) were imparted simultaneously to both the right and left parts as being symmetrical about the median line. • (a) Each 0.05ml of FCA to two points in both the right and left parts, totalling O.lml in all. • (b) Each 0.05ml of the test substance to two points in both the right and left parts, in the form of an aqueous solution (content of test substance: 10X). • (c) Each 0.05ml of FCA as containing the test substance emulsion to two points in both the right and left parts.
After one week from the hypodermic injection, the suprascapular part was again clipped and vaseline containing 10X of sodium laurylsulfate was applied thereover thereby to cause a slight inflammation on the applied part. By this treatment, the sensitization was intensified. Next, the test substance was applied to this part, which was thereafter airtightly sealed. […]

[2] = at the dosages of Table-1, 7 days

For COC1=C(OC)C(=O)C(CC=C(C)CCC=C(C)CCC=C(C)CCC=C(C)CCC=C(C)CCC=C(C)CCC=C(C)CCC=C(C)CCC=C(C)CCC=C(C)C)=C(C)C1=O [ubiquinone-10], the LD50 at 168 h ([1]; mouse, im, mice (male, female), Intramuscular) was 500 mg/kg, the LD50 at 168 h ([1]; mouse, ip, mice (male, female), Intra-abdominal) was 1500 mg/kg and the LD50 at 168 h ([1]; mouse, po, mice (male, female), Peroral) was 4000 mg/kg. It also gave an LD50 at 168 h ([1]; mouse, sc, mice (male, female), Hypodermic) of 500 mg/kg, an LD50 at 168 h ([1]; mouse, mice (male, female), Endermic) of 4000 mg/kg and an LD50 at 168 h ([1]; mouse, mice (male, female), Intravenous) of 250 mg/kg. For the same compound, the LD50 at 168 h ([1]; rat, im, rats (male, female), Intramuscular) was 500 mg/kg, the LD50 at 168 h ([1]; rat, ip, rats (male, female), Intra-abdominal) was 1500 mg/kg and the LD50 at 168 h ([1]; rat, po, rats (male, female), Peroral) was 4000 mg/kg. The LD50 at 168 h ([1]; rat, sc, rats (male, female), Hypodermic) was 500 mg/kg, the LD50 at 168 h ([1]; rat, rats (male, female), Endermic) was 4000 mg/kg and the LD50 at 168 h ([1]; rat, rats (male, female), Intravenous) was 250 mg/kg. For the same compound, the “general condition, weight, amount of feed intake, observation in dissection” value (ICR-JCL mice; at the dosages of Table-1) was “no abnormal change was found”, the lethality (ICR-JCL mice; [2]) was “no animals as tested died” and the “general condition, weight, amount of feed intake, observation in dissection” value (Wister rats; at the dosages of Table-1) was “no abnormal change was found”. For the same compound, the lethality (Wister rats; [2]) was “no animals as tested died” and the sensitization reaction (guinea pigs) was “No sensitization reaction”.
